# Assays:
# [1] = tested on: severe T8 contusion/compression SCI; experiment: Preclinical SCI model: locomotor test (BMS) and survival; type: in vivo, mouse; settings: IP daily 5 and 25 mg/kg/day
# Method: FIG. 8: Timeline of the preclinical in vivo animal study conducted as evidence of claims. Mice underwent baseline cognitive testing and blood collection immediately before SCI. Mice sustained an SCI at 8 weeks of age. SCI model: thoracic-8 contusion (50 kdyne impact) and compression ([…]), a severe contusion/compression model that accurately represents injuries seen in the clinic. 5c(i) (5 or 25 mg/kg/day) or Vehicle were administered IP daily starting 4 hours post injury to reflect the delay found in the clinic. Locomotor behavioral testing (BMS and Rotarod) were conducted weekly for 7 weeks. 7 weeks after injury, the mice underwent cognitive behavioral testing (NOR and Y-maze) and blood collection once again. Mice were euthanized 7 weeks after sustaining an SCI and underwent perfusion and tissue preparations for further analysis.
# 9A) BMS Score and 9B) BMS Sub Score were recorded and graphed in relation to time after injury. 9C) Percent of mice surviving at 49 days post injury. […] N=6-8. Graphs show mean and SEM. […] Student's T-test.
# Open Field Basso Mouse Scale (BMS): Mice were placed in an open field for 5 minutes to allow mice to freely roam to visually evaluate (by 2 individuals) the following parameters: ankle movements, stepping pattern, coordination, paw placement, trunk instability, and tail position. The mice were scored according to the BMS scoring system^59 with a minimum score of 0 (no movement) to a maximum score of 9 (normal locomotion) followed by the BMS Sub score (assessing stepping patterns, tail movement, trunk posture, paw position, and coordination)^12,60. Rotarod: Mice were placed on a rod rotating at increasing speeds from 5 to 45 rotations per minute (rpm) in a 3-minute interval with constant acceleration to assess strength, endurance, and motor coordination^12,60. Mice were first acclimated to the rotarod with 5 habituation sessions the week before injury. Baseline testing was conducted 1 day before injury. […]
# Synapsin I = experiment: Astrocyte Synapsin I staining (fluorescent intensity); type: cell-based, mouse; settings: astrocytes from 6-month-old male mice, 5 μM, 3 days
# Method: FIGS. 4A-4D: 5c(i) induces Synapsin I production and reduces C3 and GSK-3s expression from astrocytes promoting neuron survival and neurite growth. Primary adult cortical astrocytes from 6-month-old male mice were incubated with 5 μM 5c(i) for 3 days. Graph represents mean±SEM of percent change in fluorescent intensity (Synapsin I and C3) or chemiluminescence (GSK-3β) relative to Vehicle (4A and 4D). Images represent the 4B) Vehicle and 4C) 5 μM 5c(i) treated groups stained with Synapsin I and DAPI. D) Cortical astrocytes from 6-month-old male mice were plated and treated with 5c(i) or Vehicle for 2 days. Cells were then washed and cortical neurons from 6-month-old male mice were added on top of the astrocytes. […] Scale bar=50 μm.
# To determine if 5c(i) can modulate astrocytes, adult astrocytes from 6-month-old male mice were treated with 5c(i) for 3 days and stained with Synapsin I and C3 to measure changes in fluorescent intensity or western blot was conducted on the cell lysate to assess changes in GSK-3β expression (FIG. 4). […] To determine if 5c(i) treated astrocytes can directly benefit neuronal recovery, astrocytes were cultured with 5c(i) for 2 days before removing 5c(i) from the culture and plating adult neurons on top of the astrocytes for 2DIV, resulting in increased neuron survival and neurite growth. […]
# [2] = mouse, in vivo
# Method: 8-week-old male mice with a severe T8 contusion/compression SCI were injected IP daily with 5c(i) for 7 weeks (5 and 25 mg/kg/day). […] 7 weeks post injury, heparinized plasma was collected and 12B) alanine aminotransferase (ALT), 12C) alkaline phosphatase (ALP), 12D) aspartate aminotransferase (AST), and 12E) blood urea nitrogen (BUN) levels were assessed. […] N=6-8. Graphs show mean and SEM. # (p<0.1) * (p<0.05) ** (p<0.01) *** (p<0.001) **** (p<0.0001). Student's T-test.
# For the administration of pharmaceutical agents, the vehicle was 0.6 mL/kg of 100% dimethyl sulfoxide (DMSO). 5c(i) (at 5 and 25 mg/kg/day) diluted in vehicle or vehicle alone was administered once daily through intraperitoneal (IP) injections at a volume of 0.6 mL/kg/day.
# Seven weeks after injury, histological analysis was performed on livers, and toxicology screens were conducted on plasma (FIG. 12).
substance,measurement,setting,value
C-DIRG-C BODIPY® (fluorescent dye) [5c(i)],mice surviving at 49 days post injury,[1],improves survival
same,BMS Sub score,[1]; 7 weeks,significantly improved
same,BMS score,[1]; 7 weeks,significantly improved
same,Synapsin I production,Synapsin I,significant increase
same,alanine aminotransferase (ALT),[2],does not alter
same,alkaline phosphatase (ALP),[2],does not alter
same,aspartate aminotransferase (AST),[2],does not alter
same,blood urea nitrogen (BUN),[2],does not alter
